Reference: patent US7199150B2, “Amino alcohol compounds” (Sankyo Company, Limited, priority 2002, dated 2007)

Experiments:
[1] = tested on: HvGR (Host Versus Graft Reaction) in Rats; test: Inhibitory activities against HvGR in rats, combination with immunosuppressants (Test Example 3); assay type: in vivo, Lewis rats; details: oral 5 ml/kg once daily for 4 successive days; suspensions: cyclosporin A 0.08 mg/5 ml, tacrolimus 0.08 mg/5 ml, Compound A 0.008 mg/5 ml; popliteal lymph node weight
Experimental: Determination of Inhibitory Activities of Compounds against HvGR (Host Versus Graft Reaction) in Rats (1) Two strains of rats (Lewis rats (male, 6 weeks of age, Charles River Japan Inc.) and […] (male, 7 weeks of age, Japan SLC Inc.) were used. Five rats/group were used. […] Spleen cells were isolated from the spleens of […] or Lewis rats and floated in RPMI1640 medium (Life Technologies Inc.) at a concentration of 1×10^8 cells/ml. 0.1 ml of the medium containing the free-floating spleen cells of […] or 0.1 ml of the medium containing the free-floating spleen cells of Lewis rats were intracutaneously injected into the bilateral foot-pads of hindlimbs of Lewis rats. (3) Administration of Compounds […] In both the “same strain group” (Lewis rats treated with spleen cells of Lewis rats but not with the compounds) and “control group” (Lewis rats treated with the spleen cells of […] but not with the compounds), 0.5% tragacanth solution was orally administered. […] The inhibitory activities of the compounds were calculated from the “HvGR-induced changes in the popliteal lymph node weights” of individual rats in drug-treated group versus the average “HvGR-induced changes in the popliteal lymph node weights” in the control group.

[2] = tested on: Adjuvant-Induced Arthritis; test: Inhibitory activities against adjuvant-induced arthritis (Test Example 2); assay type: in vivo, rats (usually Lewis rats); details: oral, once daily for 21 successive days; foot swelling volume one day after final administration
Experimental: Determination of Inhibitory Activities of Compounds against Adjuvant-Induced Arthritis
(1) Preparation of Adjuvant
Adjuvant was prepared by suspension of killed Mycobacterium butyricum in mineral oil at a concentration of 2 mg/ml, followed by application of ultrasonic waves.
(2) Preparation of Test Compound
Test compounds were suspended or dissolved in 0.5% tragacanth solution.
(3) Induction of Adjuvant Arthritis
0.05 ml of adjuvant solution prepared as described in (1) was intracutaneously injected into the right foot-pad of rats (usually Lewis rats). Five rats/group were usually used. Adjuvant was not injected in one group of rats (normal group).
(4) Administration of Compound
Compounds prepared as described in (2) were orally administered to rats at a volume of 5 ml/kg once daily for 21 successive days. 0.5% tragacanth solution was similarly administered to rats in one group injected adjuvant (control group) and a group not injected adjuvant.
(5) Calculation of Inhibitory Activities of Compounds against Adjuvant Arthritis
One day after the final drug administration, the foot volume of each rat was measured by an apparatus for determination of the volume. The average value in normal rats was subtracted from the individual values in the drug-treated and control groups. The difference was expressed as the swelling volume. Inhibitory rate of the compound was calculated from the ratio of the individual swelling volume of the rat treated with the compound to the average swelling volume in the control group.
Inhibitory activities of compounds were expressed as ID50 values (mg/kg) calculated by least squares method based on the doses of the compound and their inhibitory ratios.

[3] = tested on: Host Versus Graft Reaction in Rats; test: Inhibitory activities against host versus graft reaction (HvGR) in rats (Test Example 1); assay type: in vivo; details: oral, once daily for 4 successive days; HvGR-induced change in popliteal lymph node weight; Lewis rats injected with WKAH/Hkm spleen cells
Experimental: Determination of Inhibitory Activities of Compounds against Host Versus Graft Reaction in Rats
(1) Two strains of rats [Lewis rats (male, 6 weeks of age, Charles River Japan Inc.) and WKAH/Hkm rats (male, 7 weeks of age, Japan SLC Inc.) were used. Five rats/group were used.
Spleen cells were isolated from the spleens of WKAH/Hkm and Lewis rats and floated in RPMI1640 medium (Life Technologies Inc.) at a concentration of 1×10^8 cells/ml. 0.1 ml of the medium containing the free-floating spleen cells of WKAH/Hkm rats or Lewis rats (1×10^7 of the spleen cells) was then intracutaneously injected into the bilateral foot-pads of hindlimbs of Lewis rats.
(3) Administration of the Compounds
Compounds were suspended in 0.5% tragacanth solution. The suspended compounds were orally administered to rats in the drug-treated group (Lewis rats injected with spleen cells of WKAH/Hkm rats and treated with the compound) at a volume of 5 ml/kg once daily for 4 successive days starting on the day of spleen cell injection. The tragacanth solution (0.5%) was orally administered, instead of the compound-suspended solution, to rats in the “same strain group” (Lewis rats injected with spleen cells of Lewis rats) and the control group (Lewis rats injected with spleen cells of WKAH/Hkm rats and not treated with the compound).
(4) Determination of Inhibitory Activities of Compounds against HvGR
Average weight of the popliteal lymph nodes of the same strain rats was subtracted from individual weights of the popliteal lymph nodes of individual rats (“HvGR-induced changes in weight of the popliteal lymph nodes”). The inhibitory activities of compounds were calculated from the “HvGR-induced changes in weights of the popliteal lymph nodes” of individual rats in the drug-treated group versus the average “HvGR-induced changes in weights of the popliteal lymph nodes” in the control group. The inhibitory activities of compounds were expressed as ID50 values (mg/kg) as calculated by least squares method based on the doses of compounds administered and inhibitory activities at these doses.

[4] = tested on: Mice GvHD (Graft Versus Host Disease); test: Inhibitory activities against mice GvHD (Test Example 4); assay type: in vivo, BDF1 mice; details: oral 10 ml/kg once daily for 10 successive days; suspensions: cyclosporin A 0.1 mg/10 ml, tacrolimus 0.2 mg/10 ml, Compound B 0.01 mg/10 ml; spleen weight compensated for body weight
Experimental: Determination of Inhibitory Activities of Compounds against Mice GvHD (Graft Versus Host Disease) (1) Two strains of mice. [BDF1 mice (male, 6 weeks of age, Charles River Japan Inc.) and C57BL/6 mice (male, 7 weeks of age, Charles River Japan Inc.)] were used. Five mice/group (hosts) were used. (2) Induction of GvHD Spleen cells were isolated from the spleens of C57BL/6 mice or BDF1 mice and floated in RPMI1640 medium (Life Technologies Inc.) at a concentration of 2×10^7 cells/ml. 0.5 ml of the medium containing the free-floating spleen cells of C57BL/6 mice) was intravenously injected into the tail vein of BDF1 mice (GvHD induction group) and the same volume of the medium containing free-floating spleen cells of BDF1 mice was intravenously injected into the tail vein of BDF1 mice (the “same strain group”). (3) Administration of Compounds […] Body weight was determined and spleens were weighed, and “spleen weight compensated for the body weight following injection of GvHD” was calculated by dividing the spleen weight by the body weight. […] The inhibitory activities of compounds were calculated from the ratios of individual “spleen weight compensated for body weight following injection of GvHD” to the average “spleen weight compensated for body weight following injection of GvHD” in the control group.

[5] = tested on: Rejection Response against Skin Transplantation of Mice; test: Inhibitory activities against rejection response against skin transplantation of mice (Test Example 5); assay type: in vivo; details: oral 10 ml/kg once daily for 14 successive days from transplantation; suspensions: cyclosporin A 30 mg/10 ml, tacrolimus 3 mg/10 ml, Compound B 0.1 mg/10 ml; C57BL/6N skin on BALB/cAnN mice
From the text: (1) Two strains of mice [C57BL/6N mice (female, 5 weeks of age, Charles River Japan Inc.) and BALB/cAnN mice (female, 5 weeks of age, Charles River Japan Inc.)] were used. Ten mice/group (transplanted individuals) were used.
C57BL/6N mice were sacrificed by cervical dislocation and their skins removed. The skins were cut to 8-mm diameter sizes by biopsy punch (MK706, 8 mm, Kai Industries Co., Ltd.). Next, 8 mm diameter sections of the back skins of BALB/cAnN mice anaesthetized with Avertin were removed by biopsy punch. The skin was cut along the edge of the damaged area by fine ophthalmic scissors. The previously cut skins of C57BL/6N mice were transplanted to the removed areas of the skin in BALB/cAnN mice. The transplanted areas were fixed with Aron Alpha (Sankyo Co., Ltd.). […]
On the 6th day after transplantation (the day of transplantation was defined as day 0), the Coban, SYLKYTEX, sterilized gauze, and Sofratulle were gently removed paying attention not to damage the skin by a pair of scissors. From the next day to 20 days after transplantation, it was determined whether rejection responses occurred in the transplanted skin. This determination was carried out blind, and the median day when the rejection response occurred was calculated.

In the case of `CC(N)(CO)CCc1ccc(C(=O)CCCCc2ccccc2)s1.O=C(O)/C=C\C(=O)O` (stereo not shown) [Compound A, 2-amino-2-methyl-4-[5-(5-phenylpentanoyl]thiophen-2-yl]butan-1-ol maleate], the “HvGR Inhibitory Rate (%)” value [1] is reported as 16.0%.
In the case of `C[C@](N)(CO)CCc1ccc(C#CCCCC2CCCCC2)o1.O=C(O)C(=O)O` [Example 2, (2R)-2-Amino-2-methyl-4-[5-(5-cyclohexylpent-1-ynyl)furan-2-yl]butan-1-ol oxalate], the “ID50 values” [2] is reported as 0.0899 mg/kg and the “HvGR ID50 values” [3] is reported as 0.714 mg/kg.
`C[C@](N)(CO)CCc1ccc(C#CCCOC2CCCCC2)o1.O=C(O)C(=O)O` [Example 3, (2R)-2-Amino-2-methyl-4-[5-(4-cyclohexyloxybut-1-ynyl)furan-2-yl]butan-1-ol oxalate] was tested, and the “ID50 values” [2] was 0.0774 mg/kg and the “HvGR ID50 values” [3] was 0.116 mg/kg.
`Cn1c(C#CCCCc2ccccc2)ccc1CC[C@@](C)(N)CO.O=C(O)C(=O)O` [Example 9, (2R)-2-Amino-2-methyl-4-[1-methyl-5-(5-phenylpent-1-ynyl)pyrrol-2-yl]butan-1-ol oxalate] was tested, and the “HvGR ID50 values” [3] was 0.120 mg/kg.
`Cn1c(C#CCCOC2CCCCC2)ccc1CC[C@@](C)(N)CO.Cn1c(C#CCCOC2CCCCC2)ccc1CC[C@@](C)(N)CO.O=C(O)C(=O)O` [Example 10, (2R)-2-Amino-2-methyl-4-[1-methyl-5-(4-cyclohexyloxybut-1-ynyl)pyrrol-2-yl]butan-1-ol ½-oxalate] was tested, and the “HvGR ID50 values” [3] was 0.276 mg/kg.
With `C[C@](N)(CO)CCc1ccc(C#CCCCc2cccc(C(F)(F)F)c2)o1.O=C(O)C(=O)O` [Example 15, (2R)-2-Amino-2-methyl-4-{5-[5-(3-trifluoromethylphenyl)pent-1-ynyl]furan-2-yl}butan-1-ol oxalate] the “HvGR ID50 values” [3] was 0.304 mg/kg.
`C[C@](N)(CO)CCc1ccc(C#CCCCC2CCCCC2)o1.Cl` [Example 19, (2R)-2-Amino-2-methyl-4-[5-(5-cyclohexylpent-1-ynyl)furan-2-yl]butan-1-ol hydrochloride] was tested, and the “ID50 values” [2] was 0.108 mg/kg and the “HvGR ID50 values” [3] was 0.097 mg/kg.
In the case of `C[C@](N)(CO)CCc1ccc(C#CCCOC2CCCCC2)o1.Cl` [Example 20, (2R)-2-Amino-2-methyl-4-[5-(4-cyclohexyloxybut-1-ynyl)furan-2-yl]butan-1-ol hydrochloride], the “ID50 values” [2] is reported as 0.102 mg/kg and the “HvGR ID50 values” [3] is reported as 0.082 mg/kg.
For `Cl.Cn1c(CC[C@@](C)(N)CO)ccc1C(=O)CCCCc1ccccc1` [Example 33, (2R)-2-Amino-2-methyl-4-[1-methyl-5-(5-phenylpentanoyl)pyrrol-2-yl]butan-1-ol hydrochloride], the “GvHD Inhibitory Rate (%)” value [4] was −2.9%, the “ID50 values” [2] was 0.0941 mg/kg and the “HvGR ID50 values” [3] was 0.013 mg/kg. For the same compound, the “Median Day of Rejection Response” value [5] was 15.0 days.
In the case of `C=CCC1C=C(C)CC(C)CC(OC)C2OC(O)(C(=O)C(=O)N3CCCCC3C(=O)OC(C(C)=CC3CCC(O)C(OC)C3)C(C)C(O)CC1=O)C(C)CC2OC` (stereo not shown) [Tacrolimus, 17-allyl-1,14-dihydroxy-12-[2-(4-hydroxy-3-methoxycyclohexyl)-1-methylvinyl]-23,25-dimethoxy-13,19,21,27-tetramethyl-11,28-dioxa-4-azatricyclo[22.3.1.0^4,9]octacos-18-ene-2,3,10,16-tetrone, reference compound], the “HvGR Inhibitory Rate (%)” value [1] is reported as 25.8%, the “GvHD Inhibitory Rate (%)” value [4] is reported as 7.6% and the “Median Day of Rejection Response” value [5] is reported as 11.0 days.
